Experimental data: ChEMBL document CHEMBL5653631, “A Potent and Selective ULK1 Inhibitor Suppresses Autophagy and Sensitizes Cancer Cells to Nutrient Stress” (iScience, 2018)

Columns and labels:
[1] = molecular target: T1, Serine/threonine-protein kinase PLK4 (Homo sapiens) (UniProt O00444); assay: Inhibition of human recombinant PLK4 at 500 nM related to control ULK1
T1 sequence (whole entry): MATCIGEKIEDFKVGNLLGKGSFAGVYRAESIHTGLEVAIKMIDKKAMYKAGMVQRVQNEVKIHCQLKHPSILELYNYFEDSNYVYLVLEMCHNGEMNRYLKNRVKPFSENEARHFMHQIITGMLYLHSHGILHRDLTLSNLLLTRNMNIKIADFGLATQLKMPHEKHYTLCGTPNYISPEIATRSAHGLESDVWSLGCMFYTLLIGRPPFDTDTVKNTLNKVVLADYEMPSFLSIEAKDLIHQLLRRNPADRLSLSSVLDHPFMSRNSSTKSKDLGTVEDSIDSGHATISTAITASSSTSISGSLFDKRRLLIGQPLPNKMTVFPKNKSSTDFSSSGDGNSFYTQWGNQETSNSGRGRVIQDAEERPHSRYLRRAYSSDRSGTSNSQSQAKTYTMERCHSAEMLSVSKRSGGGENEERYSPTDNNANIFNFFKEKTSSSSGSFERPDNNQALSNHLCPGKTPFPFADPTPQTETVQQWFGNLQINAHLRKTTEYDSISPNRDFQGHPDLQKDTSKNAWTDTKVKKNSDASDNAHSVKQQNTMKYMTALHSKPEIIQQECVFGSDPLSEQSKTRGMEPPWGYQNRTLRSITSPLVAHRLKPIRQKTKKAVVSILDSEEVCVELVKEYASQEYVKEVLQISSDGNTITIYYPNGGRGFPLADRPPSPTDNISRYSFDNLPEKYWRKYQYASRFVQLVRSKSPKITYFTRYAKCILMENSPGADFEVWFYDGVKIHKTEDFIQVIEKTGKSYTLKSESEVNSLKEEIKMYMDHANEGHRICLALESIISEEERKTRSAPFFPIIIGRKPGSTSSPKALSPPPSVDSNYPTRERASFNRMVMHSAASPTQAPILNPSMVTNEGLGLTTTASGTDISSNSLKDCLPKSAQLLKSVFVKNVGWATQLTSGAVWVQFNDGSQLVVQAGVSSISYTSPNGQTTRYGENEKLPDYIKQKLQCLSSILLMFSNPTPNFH

[2] = molecular target: T2, Muscle, skeletal receptor tyrosine-protein kinase (Homo sapiens) (UniProt O15146); assay: Inhibition of human recombinant MUSK at 500 nM in presence of ATP by radiometric assay relative to control
T2 sequence (whole entry): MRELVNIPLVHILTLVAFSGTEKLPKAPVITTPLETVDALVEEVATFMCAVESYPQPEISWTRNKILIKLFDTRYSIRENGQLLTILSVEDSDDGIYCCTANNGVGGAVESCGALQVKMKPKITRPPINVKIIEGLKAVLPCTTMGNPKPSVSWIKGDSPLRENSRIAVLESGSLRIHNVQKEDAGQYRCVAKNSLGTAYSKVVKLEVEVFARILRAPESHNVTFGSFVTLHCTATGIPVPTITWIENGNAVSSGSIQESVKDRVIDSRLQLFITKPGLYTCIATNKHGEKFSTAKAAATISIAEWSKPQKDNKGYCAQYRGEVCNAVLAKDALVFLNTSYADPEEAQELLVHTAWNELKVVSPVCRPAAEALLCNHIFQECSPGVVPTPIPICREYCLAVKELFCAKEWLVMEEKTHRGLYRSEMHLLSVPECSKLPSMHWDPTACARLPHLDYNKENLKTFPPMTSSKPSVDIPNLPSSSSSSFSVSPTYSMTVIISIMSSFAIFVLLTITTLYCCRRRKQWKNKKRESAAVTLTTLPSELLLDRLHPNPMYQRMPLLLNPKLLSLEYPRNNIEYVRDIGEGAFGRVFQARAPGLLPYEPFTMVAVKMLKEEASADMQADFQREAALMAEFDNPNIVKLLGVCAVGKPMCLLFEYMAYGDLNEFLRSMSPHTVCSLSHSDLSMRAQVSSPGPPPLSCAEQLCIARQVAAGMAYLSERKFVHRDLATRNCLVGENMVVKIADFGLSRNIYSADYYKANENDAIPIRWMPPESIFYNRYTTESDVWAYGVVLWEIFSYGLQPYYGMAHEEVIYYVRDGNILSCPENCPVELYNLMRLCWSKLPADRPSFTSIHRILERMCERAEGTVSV

[3] = molecular target: Calcium/calmodulin-dependent protein kinase type II subunit beta (Homo sapiens) (UniProt Q13554); assay: Inhibition of human recombinant CaMK2b at 15 nM in presence of ATP by radiometric assay relative to control
Chain of Calcium/calmodulin-dependent protein kinase type II subunit beta (Homo sapiens) (Q13554 whole entry): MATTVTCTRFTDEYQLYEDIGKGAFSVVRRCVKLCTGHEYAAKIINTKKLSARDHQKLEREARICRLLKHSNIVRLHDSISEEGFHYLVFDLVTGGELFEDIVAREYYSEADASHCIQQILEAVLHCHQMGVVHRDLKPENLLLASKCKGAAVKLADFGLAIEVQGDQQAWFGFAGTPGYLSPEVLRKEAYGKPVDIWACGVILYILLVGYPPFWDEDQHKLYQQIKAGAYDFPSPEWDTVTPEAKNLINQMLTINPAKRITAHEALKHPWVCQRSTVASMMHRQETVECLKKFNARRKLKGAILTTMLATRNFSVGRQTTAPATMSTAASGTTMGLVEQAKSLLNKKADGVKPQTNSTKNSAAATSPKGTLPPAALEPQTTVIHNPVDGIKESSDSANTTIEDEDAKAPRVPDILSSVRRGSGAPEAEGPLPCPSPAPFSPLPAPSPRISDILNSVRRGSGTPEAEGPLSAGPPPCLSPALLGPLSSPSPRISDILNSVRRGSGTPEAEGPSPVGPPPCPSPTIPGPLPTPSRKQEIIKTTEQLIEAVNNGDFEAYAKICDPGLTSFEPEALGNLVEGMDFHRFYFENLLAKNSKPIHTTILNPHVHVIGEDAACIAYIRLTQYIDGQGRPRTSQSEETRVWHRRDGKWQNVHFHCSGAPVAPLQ

[4] = molecular target: Serine/threonine-protein kinase SBK1 (Homo sapiens) (UniProt Q52WX2); assay: Inhibition of human recombinant SBK1 at 15 nM in presence of ATP by radiometric assay relative to control
Chain of Serine/threonine-protein kinase SBK1 (Homo sapiens) (Q52WX2 whole entry): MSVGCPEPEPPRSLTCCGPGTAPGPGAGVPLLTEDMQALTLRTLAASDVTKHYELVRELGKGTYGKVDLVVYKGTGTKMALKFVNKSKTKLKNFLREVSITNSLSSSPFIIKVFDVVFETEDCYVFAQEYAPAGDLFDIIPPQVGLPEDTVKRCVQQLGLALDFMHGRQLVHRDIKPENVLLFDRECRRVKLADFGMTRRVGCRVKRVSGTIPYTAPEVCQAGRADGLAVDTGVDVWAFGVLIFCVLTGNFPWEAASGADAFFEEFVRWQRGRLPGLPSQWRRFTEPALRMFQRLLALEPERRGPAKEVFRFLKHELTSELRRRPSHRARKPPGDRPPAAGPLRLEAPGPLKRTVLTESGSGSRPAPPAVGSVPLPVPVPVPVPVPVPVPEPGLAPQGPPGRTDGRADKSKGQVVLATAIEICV

With `CNC(=O)c1ccccc1Oc1nc(Nc2cc(OC)c(OC)c(OC)c2)ncc1Br` the fold change (FC) [1] was 0.62 and the inhibition [2] was 34%.

`CC(C)[C@H](NC(=O)c1cc(-c2cnn3cc(-c4ccc(OCCN5CCCCC5)cc4)cnc23)cs1)C(F)(F)F` was tested, and the inhibition [3] was 10% and the inhibition [4] was 5%.
